Patent US20260069694A1, “IDENTIFICATION OF HIGHLY IMMUNOSUPRESIVE TREG POPULATION IN TUMOR MICROENVIRONMENTS” (THE TRUSTEES OF COLUMBIA UNIVERSITY IN THE CITY OF NEW YORK, priority 2023, published 2026)
“Also recorded” adds a separate entry of the source.

Experiments:
[1] = test system: primary PDAC tumors of transgenic KPC mice; test: Long-term treatment of transgenic KPC mice; IHC/IF of primary PDAC tumors; type: in vivo, mouse; settings: per high-power field
Procedure: Long-term treatment studies using combinations of iRGD, Gem, and Nab-P in transgenic KPC mice and subsequent immunohistochemistry (IHC) were performed as previously reported.
For the data presented in FIG. 1, primary PDAC tumors were collected from transgenic KPC mice that received long-term treatment with Gem, iRGD, or iRGD+Gem as part of a previously published survival study. The primary PDAC tumors were immunohistochemically analyzed for the presence of CD8+ T cells.
Primary PDAC tumors were collected from transgenic KPC mice that received long-term treatment with or without Gem, iRGD, or iRGD+Gem as part of a previously published survival study. The presence of Foxp3+ Tregs in the primary PDAC tumors was analyzed by immunofluorescence.

[2] = test system: orthotopic KPC-derived PDAC tumors; test: Treatment study in orthotopic syngeneic KPC-derived PDAC mice: tumor weight; type: in vivo, mouse; settings: 3 times a week for 2 weeks
Procedure: Syngeneic PDAC mice were generated by orthotopic pancreatic injections of 5.0×10^5 KPC-derived PDAC cells into 8- to 10-week-old C57B6129SF1/J hybrid mice (Jackson™), which are the offspring of a cross between C57BL/6J females and 129S1/SvImJ males. In some experiments, the tumor growth was measured by luminescence imaging.
(§1) The treatment studies in orthotopic syngeneic PDAC mice were performed as follows. Eight days after orthotopic implantation of 5.0×10^5 KPC-derived PDAC cells, the mice were randomized into respective treatment cohorts, such as intravenous (IV) phosphate buffered saline (PBS) alone, IV iRGD alone (300 μg/25 g), IV PBS+IP antimouse PD-L1 mAb (200 μg/mouse; clone MIH6; BioLegend™), IV iRGD+IP anti-mouse PD-L1 mAb, IV PBS+IV Gem (4 mg/kg; MilliporeSigma™), and IV iRGD+IV GEM+IP anti-mouse PD-L1 mAb. The treatment was given 3 times a week for 2 weeks starting 8 days after tumor cell implantation. The tumors and major organs were harvested at the end of the studies on day 22, weighed, and processed for flow cytometry, IF, and IHC. The treatment studies were terminated according to the guidelines by the IACUC at Columbia University. Treatment studies in transgenic KPC mice were performed as previously described.
C57B6129SF1/J hybrid mice bearing orthotopic KPC-derived PDAC tumors were treated with PBS or iRGD 3 times a week for 2 weeks. […]

[3] = test system: Tregs and CD8+ T cells in PDAC tissue and spleen; test: Orthotopic KPC-derived PDAC mice: flow cytometry and IF of T cells in tumor and spleen; type: in vivo, mouse
Procedure: as §1
Tumors from orthotopic PDAC mice were minced into 2-4 mm pieces and added with an enzyme mix from a tumor dissociation kit (Miltenyi Biotec™) in Roswell Park Memorial Institute medium 1640 (Cytiva™). The tissues were dissociated using a gentle MACS Dissociator (Miltenyi Biotec™) followed by a 40-minute incubation at 37° C. The samples were then centrifuged for 10 minutes at 3000×g in the presence of debris removal solution (Miltenyi Biotec™) and 10 minutes at 1000×g in cooled PBS. The supernatant was aspirated to remove the debris. Splenocytes were prepared by gently grinding the spleen and filtrating the resulting cell suspension through a 40 μm cell strainer. Red cells were lysed with an ACK lysing buffer (Thermo Fisher Scientific™
Immune cells isolated from the tumor or spleen, or cells cultured in vitro were tested for surface marker by staining with the following reagents for 20 minutes at 4° C.: Brilliant Violet 650™-conjugated anti-mouse CD3 Ab (clone 17A2; BioLegend), PerCP/Cyanine5.5-conjugated anti-mouse CD4 Ab (clone GK1.5; BioLegend™), PE/Cyanine7-conjugated antimouse CD8a Ab (clone 53-6.7; BioLegend™), PE-conjugated anti-mouse CD25 Ab (clone 7D4; Miltenyi Biotec™), PE/Cyanine7-conjugated anti-mouse CD25 Ab (clone PC61; BioLegend™), Brilliant Violet 421™ or 711™-conjugated anti-mouse CD304/NRP-1 Ab (clone 3E12; BioLegend™), Alexa Fluor® 647-conjugated anti-mouse integrin αvβ5 Ab (clone ALULA; BD Biosciences™), PE-conjugated anti-mouse CD198 (CCR8) Ab (clone SA214G2; BioLegend™), Zombie NIR™ (BioLegend™), or Aqua™ Fixable Viability Kit (BioLegend™). Intracellular staining of immune cells was performed using the following Abs and a Foxp3 staining buffer kit (eBioscience) according to the manufacturer's instructions: Brilliant Violet 421™-conjugated anti-Foxp3 Ab (FJK-16s; eBioscience™) Pacific Blue™-conjugated anti-mouse Foxp3 Ab (clone MF-14; BioLegend™), cleaved caspase-3 (Asp175) (5A1E) rabbit mAb (Cell Signaling™), and Alexa Flour™ 488-conjugated donkey anti-rabbit secondary Ab (Thermo Fisher Scientific™)
The Effect of iRGD Therapy on the Proportion of CD8+ T cells, Tregs, and Non-Treg CD4+ T Cells in the PDAC Tissue and the Spleen was tested. C57B6129SF1/J hybrid mice bearing orthotopic KPCderived PDAC tumors were treated with PBS or iRGD 3 times a week for 2 weeks. The tumors and spleen were collected 3, 7 and 14 days after the treatment was started. The proportion of CD8+ T cells, CD4+CD25+ T cells (Tregs), and CD4+CD25neg T cells (non-Tregs) in the tumors (FIG. 6A) and the spleen (FIG. 6B) were analyzed by flow cytometry (n=3 per arm).
In addition, C57B6129SF1/J hybrid mice bearing KPC-derived orthotopic PDAC tumors were intravenously treated with PBS or iRGD 3 times a week for 2 weeks. Tumors and spleen were collected at 3, 7 and 14 days after the treatment was started. […]

metastatic PDAC = settings: in combination with gemcitabine (Gem) and nab-paclitaxel (Nab-P), phase 1b; cited from earlier work

CRGDKGPDC [iRGD]
number of CD8+ T cells in the PDAC tissue ([1]; IHC, long-term treatment): increased the number of CD8+ T cells | PDAC-resident cells expressing Foxp3 (Foxp3+ Tregs) ([1]; immunofluorescence, compared to the other arms): less PDAC-resident cells expressing Foxp3 | tumor growth (tumor weight at end of study) [2]: did not inhibit tumor growth; also recorded: did not affect tumor growth | proportion of Tregs in the PDAC tissue ([3]; CD4+CD25+ Tregs among CD4+ T cells, tumor, in 7 days, vs PBS): significantly reduced the proportion of Tregs | CD8/Treg ratio in the spleen ([3]; spleen of the PDAC mice): did not affect | proportion of CD8+ T cells in the spleen ([3]; spleen of the PDAC mice): did not affect | proportion of Tregs in the spleen ([3]; spleen of the PDAC mice): did not affect | proportion of CD8+ T cells in the PDAC tissue ([3]; tumor, flow cytometry, vs PBS): increased the proportion of CD8+ T cells | CD8/Treg ratio in the PDAC tissue ([3]; tumor, in 7 days, vs PBS): significantly increased the CD8/Treg ratio | efficacy against metastatic PDAC (metastatic PDAC): promising preliminary efficacy
